The values that follow are results of earlier work, collected in paper PMC12390126, “Human Skin Permeation of Ethoxy- and Propoxypropanol Commonly Found in Water-Based Products” (Toxics, 2025).

Read-outs that look alike come from different tables or passages of the source.

For series [1] the following is noted: frozen full thickness skin, 32 °C, 4 h, cited from earlier work; for J ± SD / Kp ± SD: 56.1-61.7 mg/cm^2.
For series [2] the following is noted: dermatomed 0.8 mm, 32 °C, 24 h, cited from earlier work; for J ± SD / Kp ± SD: 109.6 (PGME) or 100.0 (PGBE) mg/cm^2.
Details of series [3]: method as in PMID 15251185. The note with it: frozen full thickness skin (1 mm), 32 °C, 57.8 mg/cm^2, 8 h; cited from earlier work.

As for `CCCCOCC(C)O` (stereo not drawn) [PGBE, propylene glycol butyl ether], in series [1], the “J ± SD” value is reported as 17 ± 5 µg/cm^2/h, the “Kp ± SD” value is given as 0.02 ± 0.005 10^−3 cm/h and the “Tlag ± SD” value is 0.62 ± 0.03 h. In series [2] (fresh skin), the “J ± SD” value is listed as 7.93 ± 1.57 µg/cm^2/h, the “Kp ± SD” value is reported as 0.009 ± 0.002 10^−3 cm/h and the “Tlag ± SD” value is on record as 0.89 ± 0.13 h. In series [2] (frozen skin), the “J ± SD” value is given as 44.1 ± 16.2 µg/cm^2/h, the “Kp ± SD” value is given as 0.05 ± 0.02 10^−3 cm/h and the “Tlag ± SD” value is 0.86 ± 0.23 h.
Turning to `COCC(C)OC(C)=O` (stereo not drawn) [PGMEac, propylene glycol methyl ether acetate], in series [1], the “J ± SD” value is on record as 59 ± 44 µg/cm^2/h, the “Kp ± SD” value is on record as 0.06 ± 0.006 10^−3 cm/h and the “Tlag ± SD” value is given as 0.5 ± 0.05 h.
Take dipropylene glycol methyl ether [DPGME]: in series [3], the “J ± SD” value is 106.3 ± 37.6 µg/cm^2/h, the “Kp ± SD” value is 0.11 ± 0.04 10^−3 cm/h and the “Tlag ± SD” value was 1.51 ± 0.48 h.
